Results from ChEMBL document CHEMBL1828555, “Primary amino acid derivatives: substitution of the 4'-N'-benzylamide site in (R)-N'-benzyl 2-amino-3-methylbutanamide, (R)-N'-benzyl 2-amino-3,3-dimethylbutanamide, and (R)-N'-benzyl 2-amino-3-methoxypropionamide provides potent anticonvulsants with pain-attenuating properties” (J Med Chem, 2011).
Calls of active or inactive are those of the source. No cut-off for these calls is given here.

Tests used:
Mus musculus [1] = experiment: Neurotoxicity in ip dosed albino CF1 mouse assessed as time of peak effect for median neurological impairing; assay type: toxicity, organism-based; details: in vivo
Mus musculus [2] = experiment: Anticonvulsant activity in ip dosed albino CF1 mouse assessed as time of peak effect for protection against 6 Hz psychomotor seizure; assay type: functional
Mus musculus [3] = experiment: Protective index, ratio of TD50 for ip dosed albino CF1 mouse to ED50 for ip dosed albino CF1 mouse by maximal electroshock test; assay type: functional
Rattus norvegicus [4] = experiment: Protective index, ratio of TD50 for po dosed albino Sprague-Dawley rat to ED50 for po dosed albino Sprague-Dawley rat by maximal electroshock test; assay type: functional
[5] = Toxicity in po dosed albino Sprague-Dawley rat assessed as behavioural toxicity; assay type: organism-based; details: in vivo
Rattus norvegicus [6] = experiment: Anticonvulsant activity in po dosed albino Sprague-Dawley rat assessed as protection against maximal electroshock seizure; assay type: functional
Mus musculus [7] = experiment: Anticonvulsant activity in ip dosed albino CF1 mouse assessed as protection against 6 Hz psychomotor seizure after 30 mins; assay type: functional; details: 0.5 h
Mus musculus [8] = experiment: Anticonvulsant activity in ip dosed albino CF1 mouse assessed as protection against maximal electroshock-induced seizure after 30 mins; assay type: functional; details: 0.5 h
Mus musculus [9] = experiment: Anticonvulsant activity in ip dosed albino CF1 mouse assessed as time of peak effect for protection against maximal electroshock-induced seizure; assay type: functional
[10] = Neurotoxicity in ip dosed albino CF1 mouse assessed as median neurological impairing dose after 30 mins; assay type: toxicity, organism-based; details: in vivo
Rattus norvegicus [11] = experiment: Anticonvulsant activity in po dosed albino Sprague-Dawley rat assessed as time of peak effect for protection against maximal electroshock seizure; assay type: functional
Mus musculus [12] = experiment: Anticonvulsant activity in ip dosed albino CF1 mouse assessed as protection against subcutaneous pentylenetetrazol-induced seizure; assay type: functional, organism-based
Rattus norvegicus [13] = experiment: Toxicity in po dosed albino Sprague-Dawley rat assessed as time of peak effect for behavioural toxicity; assay type: organism-based; details: in vivo
Mus musculus [14] = experiment: Anticonvulsant activity in ip dosed NMRI mouse assessed as protection against maximal electroshock seizure after 30 mins; assay type: functional; details: 0.5 h
[15] = Neurotoxicity in ip dosed NMRI mouse assessed as median neurological impairing dose after 30 mins by rotarod test; assay type: toxicity, organism-based; details: in vivo
Mus musculus [16] = experiment: Analgesic activity in ip dosed NMRI mouse assessed as reduction in formalin-induced neuropathic pain after 30 mins; assay type: functional; details: 0.5 h
Mus musculus [17] = experiment: Protective index, ratio of TD50 for ip dosed NMRI mouse to ED50 for ip dosed NMRI mouse by maximal electroshock test; assay type: functional
Mus musculus [18] = experiment: Anticonvulsant activity in ip dosed 6 Hz psychomotor seizure model of NMRI mouse assessed as protection against seizure after 30 minutes; assay type: functional; details: 0.5 h

Compound | Time (Mus musculus [1]) | Time (Mus musculus [2]) | Ratio TD50/ED50 (Mus musculus [3]) | Ratio TD50/ED50 (Rattus norvegicus [4]) | TD50 [5] | ED50 (Rattus norvegicus [6]) | ED50 (Mus musculus [7]) | ED50 (Mus musculus [8]) | Time (Mus musculus [9]) | TD50 at 0.5 h [10] | Time (Rattus norvegicus [11]) | Activity (Mus musculus [12]) | Time (Rattus norvegicus [13]) | ED50 (Mus musculus [14]) | TD50 at 0.5 h [15] | ED50 (Mus musculus [16]) | Ratio TD50/ED50 (Mus musculus [17]) | ED50 (Mus musculus [18])
COC[C@@H](N)C(=O)NCc1ccc(OCc2cccc(F)c2)cc1 | 0.25 h | 0.5 h | 3.9 | >38 | > 500 mg/kg | 13 mg/kg | < 50 mg/kg | 15 mg/kg | 0.5 h | 58 mg/kg | 0.5 h | inactive | – | – | – | – | – | –
CC(C)(C)[C@@H](N)C(=O)NCc1ccc(C(F)(F)F)cc1 | 0.25 h | – | 5.5 | – | > 30 mg/kg | < 30 mg/kg | – | 24 mg/kg | 0.25 h | 133 mg/kg | 0.5 h | inactive | 0.25 h | – | – | – | – | –
CC(C)(C)[C@@H](N)C(=O)NCc1ccc(OC(F)(F)F)cc1 | 0.25 h | – | 2.6 | – | > 30 mg/kg | 23 mg/kg | – | 28 mg/kg | 1 h | 73 mg/kg | 2 h | inactive | 0.25 h | – | – | – | – | –
O=C1NC(=O)C(c2ccccc2)(c2ccccc2)N1 [PHENYTOIN] | 0.25 h | – | – | – | > 3000 mg/kg | – | – | – | 2 h | 27 mg/kg | 4 h | – | – | – | – | – | – | –
COC[C@@H](N)C(=O)NCc1ccc(OC(F)(F)F)cc1.Cl | – | – | – | – | – | – | – | – | – | – | – | inactive | – | 10 mg/kg | 30 mg/kg | – | – | –
CC(C)[C@@H](N)C(=O)NCc1ccc(COc2cccc(F)c2)cc1 | 0.5 h | 0.5 h | – | – | > 30 mg/kg | < 30 mg/kg | 30 mg/kg | 18 mg/kg | 0.25 h | 71 mg/kg | 0.5 h | inactive | 0.25 h | 12 mg/kg | – | 30 mg/kg | 3.9 | > 110 mg/kg
CC(C)(C)[C@@H](N)C(=O)NCc1ccc(COc2cccc(F)c2)cc1 | 0.5 h | – | – | – | > 30 mg/kg | 30 mg/kg | > 75 mg/kg | 30 mg/kg | 0.5 h | 100 mg/kg | 2 h | inactive | 0.25 h | – | – | – | – | –
C[C@@H](N)C(=O)NCc1ccc(OCc2cccc(F)c2)cc1 | – | – | – | – | – | – | – | – | – | – | – | inactive | – | 17 mg/kg | – | > 37 mg/kg | – | > 120 mg/kg
CC(C)[C@H](N)C(=O)NCc1ccccc1 | – | – | – | – | – | – | – | > 300 mg/kg | – | > 300 mg/kg | – | inactive | – | – | – | – | – | –
COC[C@H](N)C(=O)NCc1ccccc1 | – | – | – | – | – | – | – | – | – | – | – | inactive | – | 64 mg/kg | 63 mg/kg | 120 mg/kg | 1 | > 70 mg/kg
COC[C@@H](N)C(=O)NCc1ccc(C(F)(F)F)cc1.Cl | – | – | – | – | – | – | – | – | – | – | – | inactive | – | 19 mg/kg | 48 mg/kg | > 31 mg/kg | 2.5 | 55 mg/kg
CC(C)[C@@H](N)C(=O)NCc1ccc(-c2ccccc2)cc1 | 0.5 h | – | – | – | > 30 mg/kg | 30 mg/kg | – | 30 mg/kg | 0.5 h | > 300 mg/kg | 2 h | inactive | 0.25 h | – | – | – | – | –
CC(C)[C@H](N)C(=O)NCc1ccc(COc2cccc(F)c2)cc1 | – | – | – | – | > 30 mg/kg | > 30 mg/kg | – | 30 mg/kg | – | 100 mg/kg | 0.25 h | inactive | 0.25 h | – | – | – | – | –
COc1ccc(CNC(=O)[C@H](N)C(C)C)cc1 | 0.5 h | – | – | – | > 30 mg/kg | > 30 mg/kg | – | > 300 mg/kg | 0.5 h | 30 mg/kg | 0.25 h | inactive | 0.25 h | – | – | – | – | –
COC[C@@H](N)C(=O)NCc1ccccc1.Cl | 0.25 h | – | – | – | – | – | – | 48 mg/kg | 0.25 h | 30 mg/kg | – | inactive | – | 34 mg/kg | > 120 mg/kg | > 67 mg/kg | >3.5 | > 67 mg/kg
Cc1ccc(CNC(=O)[C@H](N)C(C)C)cc1 | 0.5 h | – | – | – | > 50 mg/kg | 50 mg/kg | – | > 300 mg/kg | 0.5 h | > 300 mg/kg | 1 h | inactive | 0.25 h | – | – | – | – | –
CCCC(CCC)C(=O)[O-].[Na+] [VALPROATE SODIUM] | 0.25 h | – | – | – | – | – | – | 270 mg/kg | 0.5 h | – | 0.5 h | – | 0.5 h | – | – | – | – | –
COC[C@@H](NC(C)=O)C(=O)NCc1ccccc1 [LACOSAMIDE] | 0.25 h | – | – | – | > 500 mg/kg | – | 10 mg/kg | – | 0.5 h | 27 mg/kg | 2 h | – | – | 3.3 mg/kg | 19 mg/kg | 15 mg/kg | – | 10 mg/kg
COC[C@H](N)C(=O)NCc1ccc(COc2cccc(F)c2)cc1 | – | – | – | – | – | – | – | 30 mg/kg | – | 100 mg/kg | – | inactive | – | – | – | – | – | –
C[C@H](N)C(=O)NCc1ccccc1 | – | – | – | – | – | – | – | > 300 mg/kg | – | > 300 mg/kg | – | – | – | – | – | – | – | –
CC(C)(C)[C@@H](N)C(=O)NCc1ccc(-c2ccccc2)cc1 | 0.5 h | – | – | – | – | – | – | 30 mg/kg | 0.5 h | 30 mg/kg | – | inactive | – | – | – | – | – | –
CCC1(c2ccccc2)C(=O)NC(=O)NC1=O [PHENOBARBITAL] | 0.5 h | – | 3 | – | – | – | – | – | 1 h | 66 mg/kg | 5 h | – | 0.5 h | – | – | – | – | –
CC(C)(C)[C@@H](N)C(=O)NCc1ccc(OCc2cccc(F)c2)cc1 | 0.5 h | – | – | – | > 30 mg/kg | > 30 mg/kg | – | 30 mg/kg | 0.5 h | 300 mg/kg | 0.25 h | inactive | 0.25 h | – | – | – | – | –
CC(C)(C)[C@H](N)C(=O)NCc1ccccc1 | 0.25 h | – | – | – | – | – | – | 42 mg/kg | 0.25 h | 105 mg/kg | – | inactive | – | – | – | – | 2.5 | –
